{"source": "patent US9486506B2", "about": "(Novo Nordisk A/S, priority 2011, dated 2016)", "key": {"glucagon receptor": {"molecular_target": "T1, glucagon receptor (Homo sapiens, UniProt P47871)", "T1 construct": "expressed in transfected cells", "T1 sequence (P47871 26-477)": "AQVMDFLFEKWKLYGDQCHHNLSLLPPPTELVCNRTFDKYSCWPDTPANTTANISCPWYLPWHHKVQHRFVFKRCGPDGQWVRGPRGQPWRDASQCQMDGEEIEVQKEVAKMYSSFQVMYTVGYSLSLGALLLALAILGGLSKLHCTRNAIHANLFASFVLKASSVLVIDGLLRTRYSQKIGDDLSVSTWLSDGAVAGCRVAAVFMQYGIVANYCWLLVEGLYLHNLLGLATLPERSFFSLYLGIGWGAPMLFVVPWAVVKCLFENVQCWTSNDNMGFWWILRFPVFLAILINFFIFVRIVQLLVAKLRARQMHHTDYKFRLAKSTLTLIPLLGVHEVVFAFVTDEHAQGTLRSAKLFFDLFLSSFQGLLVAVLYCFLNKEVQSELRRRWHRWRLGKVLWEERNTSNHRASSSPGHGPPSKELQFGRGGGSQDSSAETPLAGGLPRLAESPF", "assay": "Assay (I) Glucagon activity (cAMP biosensor, FLIPR)", "format": "cell-based"}, "[1]": {"assay": "Assay (X) Chemical stability assessment by RP-UPLC", "format": "physicochemical", "conditions": "pH 8.15, 14 days at 37° C. vs 5° C., 333 μM"}}, "note": "pEC50: −log10 of the molar value. Numbered stars: 1 amine (or outer) side, 2 acyl side, 3 side chain; on linkers, the order of the positions; unused ones are H or OH. Side chains are listed from the residue outwards. Peptide text beside a SMILES is read from it. * marks the point of attachment. X1 = O=C(CCCCCCCCCCCCCCCc1nnn[nH]1)NS(=O)(=O)CCCC(=O)*; C18 diacid = O=C(O)CCCCCCCCCCCCCCCCC(=O)*; γGlu = O=C(O)[C@H](CCC(=O)[*:2])N[*:1]; AEEA = NCCOCCOCC(=O)O", "data": [{"smiles": "CC(C)C[C@H](NC(=O)[C@H](Cc1c[nH]c2ccccc12)NC(=O)[C@H](CCCCNC(=O)COCCOCCNC(=O)COCCOCCNC(=O)CC[C@H](NC(=O)CC[C@H](NC(=O)CC[C@H](NC(=O)CCCCCCCCCCCCCCCCC(=O)O)C(=O)O)C(=O)O)C(=O)O)NC(=O)[C@@H](NC(=O)[C@H](Cc1ccccc1)NC(=O)[C@H](CCC(=O)O)NC(=O)[C@H](CCC(N)=O)NC(=O)[C@H](C)NC(=O)[C@H](CCCNC(=N)N)NC(=O)[C@H](CCCNC(=N)N)NC(=O)[C@@H](NC(=O)[C@H](CC(=O)O)NC(=O)[C@H](CC(C)C)NC(=O)[C@H](Cc1ccc(O)cc1)NC(=O)[C@H](CCCCN)NC(=O)[C@H](CO)NC(=O)[C@@H](NC(=O)[C@H](CC(=O)O)NC(=O)[C@H](CO)NC(=O)[C@@H](NC(=O)[C@H](Cc1ccccc1)NC(=O)[C@@H](NC(=O)CNC(=O)[C@H](CCC(N)=O)NC(=O)[C@H](CO)NC(=O)[C@@H](N)Cc1c[nH]cn1)[C@@H](C)O)[C@@H](C)O)C(C)C)[C@@H](C)O)C(C)C)C(=O)N[C@@H](CC(C)C)C(=O)N[C@@H](CO)C(=O)N[C@H](C(=O)O)[C@@H](C)O", "note": "[Example 62, N^ε24-[2-[2-[2-[[2-[2-[2-[[(4S)-4-carboxy-4-[[(4S)-4-carboxy-4-[[(4S)-4-carboxy-4-(17-carboxyheptadecanoylamino)butanoyl]amino]butanoyl]amino]butanoyl]amino]ethoxy]ethoxy]acetyl]amino]ethoxy]ethoxy]acetyl]-[Val10,Thr16,Glu21,Lys24,Leu27,Ser28]-Glucagon] (H-HSQGTFTSDVSKYLDTRRAQEFVK([AEEA-AEEA-γGlu-γGlu-γGlu-C18 diacid])WLLST-OH)", "values": [{"measurement": "pEC50", "setting": "glucagon receptor", "value": 10.10}, {"measurement": "Chemical stability [Purity loss/14 days 37 C.]", "setting": "[1]", "value": 5.6, "unit": "%"}]}, {"smiles": "CC(C)C[C@H](NC(=O)[C@H](Cc1c[nH]c2ccccc12)NC(=O)[C@H](CCCCNC(=O)CC[C@H](NC(=O)COCCOCCNC(=O)COCCOCCNC(=O)CC[C@H](NC(=O)CC[C@H](NC(=O)CCCCCCCCCCCCCCCCC(=O)O)C(=O)O)C(=O)O)C(=O)O)NC(=O)[C@@H](NC(=O)[C@H](Cc1ccccc1)NC(=O)[C@H](CCC(=O)O)NC(=O)[C@H](CCC(N)=O)NC(=O)[C@H](C)NC(=O)[C@H](CCCNC(=N)N)NC(=O)[C@H](CCCNC(=N)N)NC(=O)[C@@H](NC(=O)[C@H](CC(=O)O)NC(=O)[C@H](CC(C)C)NC(=O)[C@H](Cc1ccc(O)cc1)NC(=O)[C@H](CCCNC(=N)N)NC(=O)[C@H](CO)NC(=O)[C@@H](NC(=O)[C@H](CC(=O)O)NC(=O)[C@H](CO)NC(=O)[C@@H](NC(=O)[C@H](Cc1ccccc1)NC(=O)[C@@H](NC(=O)CNC(=O)[C@H](CCC(N)=O)NC(=O)[C@H](CO)NC(=O)[C@@H](N)Cc1c[nH]cn1)[C@@H](C)O)[C@@H](C)O)C(C)C)[C@@H](C)O)C(C)C)C(=O)N[C@@H](CC(C)C)C(=O)N[C@@H](CO)C(=O)N[C@H](C(=O)O)[C@@H](C)O", "note": "[Example 64, N^ε24-[(4S)-4-carboxy-4-[[2-[2-[2-[[2-[2-[2-[[(4S)-4-carboxy-4-[[(4S)-4-carboxy-4-(17-carboxyheptadecanoylamino)butanoyl]amino]butanoyl]amino]ethoxy]ethoxy]acetyl]amino]ethoxy]ethoxy]acetyl]amino]butanoyl]-[Val10,Arg12,Thr16,Glu21,Lys24,Leu27,Ser28]-Glucagon] (H-HSQGTFTSDVSRYLDTRRAQEFVK([γGlu-AEEA-AEEA-γGlu-γGlu-C18 diacid])WLLST-OH)", "values": [{"measurement": "pEC50", "setting": "glucagon receptor", "value": 9.75}, {"measurement": "Chemical stability [Purity loss/14 days 37 C.]", "setting": "[1]", "value": 5.1, "unit": "%"}]}, {"smiles": "CC(C)C[C@H](NC(=O)[C@H](Cc1ccc(O)cc1)NC(=O)[C@H](CCCCN)NC(=O)[C@H](CO)NC(=O)[C@H](Cc1ccc(O)cc1)NC(=O)[C@H](CC(=O)O)NC(=O)[C@H](CO)NC(=O)[C@@H](NC(=O)[C@H](Cc1ccccc1)NC(=O)[C@@H](NC(=O)CNC(=O)[C@H](CCC(N)=O)NC(=O)[C@H](CO)NC(=O)[C@@H](N)Cc1c[nH]cn1)[C@@H](C)O)[C@@H](C)O)C(=O)N[C@@H](CCC(=O)O)C(=O)N[C@@H](CO)C(=O)N[C@@H](CCCNC(=N)N)C(=O)N[C@@H](CCCNC(=N)N)C(=O)N[C@@H](C)C(=O)N[C@@H](CCC(N)=O)C(=O)N[C@@H](CC(=O)O)C(=O)N[C@@H](Cc1ccccc1)C(=O)N[C@H](C(=O)N[C@@H](CCCCNC(=O)CC[C@H](NC(=O)CC[C@H](NC(=O)COCCOCCNC(=O)CC[C@H](NC(=O)CCCS(=O)(=O)NC(=O)CCCCCCCCCCCCCCCc1nnn[nH]1)C(=O)O)C(=O)O)C(=O)O)C(=O)N[C@@H](Cc1c[nH]c2ccccc12)C(=O)N[C@@H](CC(C)C)C(=O)N[C@@H](CC(C)C)C(=O)N[C@@H](CO)C(=O)N[C@H](C(=O)O)[C@@H](C)O)C(C)C", "note": "[Example 65, N^ε24-[(4S)-4-carboxy-4-[[(4S)-4-carboxy-4-[[2-[2-[2-[[(4S)-4-carboxy-4-[4-[16-(1H-tetrazol-5-yl)hexadecanoylsulfarnoyl]butanoylamino]butanoyl]amino]ethoxy]ethoxy]acetyl]amino]butanoyl]amino]butanoyl]-[Glu15,Lys24,Leu27,Ser28]-Glucagon] (H-HSQGTFTSDYSKYLESRRAQDFVK([γGlu-γGlu-AEEA-γGlu-X1])WLLST-OH; N-terminus and C-terminus assumed)", "values": [{"measurement": "pEC50", "setting": "glucagon receptor", "value": 9.44}, {"measurement": "Chemical stability [Purity loss/14 days 37 C.]", "setting": "[1]", "value": 7.8, "unit": "%"}]}, {"smiles": "CC(C)C[C@H](NC(=O)[C@H](Cc1ccc(O)cc1)NC(=O)[C@H](CCCCN)NC(=O)[C@H](CO)NC(=O)[C@H](Cc1ccc(O)cc1)NC(=O)[C@H](CC(=O)O)NC(=O)[C@H](CO)NC(=O)[C@@H](NC(=O)[C@H](Cc1ccccc1)NC(=O)[C@@H](NC(=O)CNC(=O)[C@H](CCC(N)=O)NC(=O)[C@H](CO)NC(=O)[C@@H](N)Cc1c[nH]cn1)[C@@H](C)O)[C@@H](C)O)C(=O)N[C@@H](CCC(=O)O)C(=O)N[C@@H](CO)C(=O)N[C@@H](CCCNC(=N)N)C(=O)N[C@@H](CCCNC(=N)N)C(=O)N[C@@H](C)C(=O)N[C@@H](CCC(N)=O)C(=O)N[C@@H](CC(=O)O)C(=O)N[C@@H](Cc1ccccc1)C(=O)N[C@H](C(=O)N[C@@H](CCCCNC(=O)CC[C@H](NC(=O)CC[C@H](NC(=O)COCCOCCNC(=O)CCCS(=O)(=O)NC(=O)CCCCCCCCCCCCCCCc1nnn[nH]1)C(=O)O)C(=O)O)C(=O)N[C@@H](Cc1c[nH]c2ccccc12)C(=O)N[C@@H](CC(C)C)C(=O)N[C@@H](CC(C)C)C(=O)N[C@@H](CO)C(=O)N[C@H](C(=O)O)[C@@H](C)O)C(C)C", "note": "[Example 66, N^ε24-[(4S)-4-carboxy-4-[[(4S)-4-carboxy-4-[[2-[2-[2-[4-[16-(1H-tetrazol-5-yl)hexadecanoylsulfarnoyl]butanoylamino]ethoxy]ethoxy]acetyl]amino]butanoyl]amino]butanoyl][Glu15,Lys24,Leu27,Ser28]-Glucagon] (H-HSQGTFTSDYSKYLESRRAQDFVK([γGlu-γGlu-AEEA-X1])WLLST-OH; N-terminus and C-terminus assumed)", "values": [{"measurement": "pEC50", "setting": "glucagon receptor", "value": 9.40}, {"measurement": "Chemical stability [Purity loss/14 days 37 C.]", "setting": "[1]", "value": 8.3, "unit": "%"}]}, {"smiles": "CC(C)C[C@H](NC(=O)[C@H](CC(=O)O)NC(=O)[C@H](CC(C)C)NC(=O)[C@H](Cc1ccc(O)cc1)NC(=O)[C@H](CCCNC(=N)N)NC(=O)[C@H](CO)NC(=O)[C@H](Cc1ccc(O)cc1)NC(=O)[C@H](CC(=O)O)NC(=O)[C@H](CO)NC(=O)[C@@H](NC(=O)[C@H](Cc1ccccc1)NC(=O)[C@@H](NC(=O)CNC(=O)[C@H](CCC(N)=O)NC(=O)[C@H](CO)NC(=O)[C@@H](N)Cc1c[nH]cn1)[C@@H](C)O)[C@@H](C)O)C(=O)N[C@@H](CCCNC(=N)N)C(=O)N[C@@H](CCCNC(=N)N)C(=O)N[C@@H](C)C(=O)N[C@@H](CCC(N)=O)C(=O)N[C@@H](CC(=O)O)C(=O)N[C@@H](Cc1ccccc1)C(=O)N[C@H](C(=O)N[C@@H](CCCCNC(=O)CC[C@H](NC(=O)CC[C@H](NC(=O)COCCOCCNC(=O)COCCOCCNC(=O)CC[C@H](NC(=O)CCCS(=O)(=O)NC(=O)CCCCCCCCCCCCCCCc1nnn[nH]1)C(=O)O)C(=O)O)C(=O)O)C(=O)N[C@@H](Cc1c[nH]c2ccccc12)C(=O)N[C@@H](CC(C)C)C(=O)N[C@@H](CC(C)C)C(=O)N[C@@H](CO)C(=O)N[C@H](C(=O)O)[C@@H](C)O)C(C)C", "note": "[Example 67, N^ε24-[(4S)-4-carboxy-4-[[(4S)-4-carboxy-4-[[2-[2-[2-[[2-[2-[2-[[(4S)-4-carboxy-4-[4-[16-(1H-tetrazol-5-yl)hexadecanoylsulfannoyl]butanoylamino]butanoyl]amino]ethoxy]ethoxy]acetyl]amino]ethoxy]ethoxy]acetyl]amino]butanoyl]amino]butanoyl]-[Arg12,Leu16,Lys24,Leu27,Ser28]-Glucagon] (H-HSQGTFTSDYSRYLDLRRAQDFVK([γGlu-γGlu-AEEA-AEEA-γGlu-X1])WLLST-OH)", "values": [{"measurement": "pEC50", "setting": "glucagon receptor", "value": 9.64}, {"measurement": "Chemical stability [Purity loss/14 days 37 C.]", "setting": "[1]", "value": 7.4, "unit": "%"}]}, {"smiles": "CC(C)C[C@H](NC(=O)[C@H](CC(=O)O)NC(=O)[C@H](CC(C)C)NC(=O)[C@H](Cc1ccc(O)cc1)NC(=O)[C@H](CCCNC(=N)N)NC(=O)[C@H](CO)NC(=O)[C@H](Cc1ccc(O)cc1)NC(=O)[C@H](CC(=O)O)NC(=O)[C@H](CO)NC(=O)[C@@H](NC(=O)[C@H](Cc1ccccc1)NC(=O)[C@@H](NC(=O)CNC(=O)[C@H](CCC(N)=O)NC(=O)[C@H](CO)NC(=O)[C@@H](N)Cc1c[nH]cn1)[C@@H](C)O)[C@@H](C)O)C(=O)N[C@@H](CCCNC(=N)N)C(=O)N[C@@H](CCCNC(=N)N)C(=O)N[C@@H](C)C(=O)N[C@@H](CCC(N)=O)C(=O)N[C@@H](CC(=O)O)C(=O)N[C@@H](Cc1ccccc1)C(=O)N[C@H](C(=O)N[C@@H](CCCCNC(=O)CC[C@H](NC(=O)CC[C@H](NC(=O)COCCOCCNC(=O)COCCOCCNC(=O)CCCS(=O)(=O)NC(=O)CCCCCCCCCCCCCCCc1nnn[nH]1)C(=O)O)C(=O)O)C(=O)N[C@@H](Cc1c[nH]c2ccccc12)C(=O)N[C@@H](CC(C)C)C(=O)N[C@@H](CC(C)C)C(=O)N[C@@H](CO)C(=O)N[C@H](C(=O)O)[C@@H](C)O)C(C)C", "note": "[Example 68, N^ε24-[(4S)-4-carboxy-4-[[(4S)-4-carboxy-4-[[2-[2-[2-[[2-[2-[2-[4-[16-(1H-tetrazol-5-yl)hexadecanoylsulfannoyl]butanoylamino]ethoxy]ethoxy]acetyl]amino]ethoxy]ethoxy]acetyl]amino]butanoyl]amino]butanoyl]-[Arg12, Leu16, Lys24, Leu27,Ser28]-Glucagon] (H-HSQGTFTSDYSRYLDLRRAQDFVK([γGlu-γGlu-AEEA-AEEA-X1])WLLST-OH)", "values": [{"measurement": "pEC50", "setting": "glucagon receptor", "value": 9.45}, {"measurement": "Chemical stability [Purity loss/14 days 37 C.]", "setting": "[1]", "value": 5.6, "unit": "%"}]}]}
